Source: ChEMBL document CHEMBL4339236, “Colletopeptides A-D, Anti-inflammatory Cyclic Tridepsipeptides from the Plant Endophytic Fungus Colletotrichum sp. S8” (J Nat Prod, 2019)
pIC50: −log10 of the molar value. Active and inactive are the calls of the source. The calls are words filed in the database; no cut-off is given here.

Key:
Staphylococcus aureus = experiment: Antibacterial activity against Staphylococcus aureus measured after 24 hrs by broth microdilution assay; format: functional, organism-based
A549 = experiment: Cytotoxicity against human A549 cells measured after 48 hrs by MTS assay; format: cell-based; details: a549, 48 h
HCT-116 = experiment: Cytotoxicity against human HCT116 cells measured after 48 hrs by MTS assay; format: cell-based; details: hct-116, 48 h
Bacillus subtilis = experiment: Antibacterial activity against Bacillus subtilis measured after 24 hrs by broth microdilution assay; format: functional, organism-based
HepG2 [1] = experiment: Cytotoxicity against human HepG2 cells measured after 48 hrs by MTS assay; format: cell-based; details: hepg2, 48 h
[2] = target: Histone deacetylase (Homo sapiens) (UniProt Q13547+O15379+Q9UBN7+Q92769+Q9UQL6+Q8WUI4+Q9BY41+Q96DB2+P56524+Q9UKV0+Q969S8); experiment: Inhibition of HDAC in human HeLa nuclear extracts using Boc-Lys(Ac)-AMC as substrate by fluorescence assay; format: cell-free
HepG2 [3] = experiment: Lipid lowering activity in human HepG2 cells assessed as reduction in oleic acid-induced lipid accumulation after 24 hrs by oil red O staining based spectrophotometric method; format: functional, cell-based
HeLa = experiment: Cytotoxicity against human HeLa cells measured after 48 hrs by MTS assay; format: cell-based
MDA-MB-231 = experiment: Cytotoxicity against human MDA-MB-231 cells measured after 48 hrs by MTS assay; format: cell-based; details: mda-mb-231, 48 h
Escherichia coli = experiment: Antibacterial activity against Colon bacillus measured after 24 hrs by broth microdilution assay; format: functional, organism-based
RAW264.7 [4] = experiment: Antiinflammatory activity in mouse RAW264.7 cells assessed as inhibition of LPS-induced nitric oxide production preincubated for 12 hrs followed by LPS-stimulation and measured after 24 hrs by Griess assay; format: functional, cell-based
Aeromonas hydrophila = experiment: Antibacterial activity against Aeromonas hydrophila measured after 24 hrs by broth microdilution assay; format: functional, organism-based
[5] = target: T1, NF-kappa-B inhibitor alpha (Mus musculus) (UniProt Q9Z1E3); experiment: Inhibition of IkappaBalpha phosphorylation in LPS-stimulated mouse RAW264.7 cells at 20 to 40 uM preincubated for 12 hrs followed by LPS stimulation and measured after 24 hrs by Western blot analysis; format: cell-based
T1 sequence (whole entry): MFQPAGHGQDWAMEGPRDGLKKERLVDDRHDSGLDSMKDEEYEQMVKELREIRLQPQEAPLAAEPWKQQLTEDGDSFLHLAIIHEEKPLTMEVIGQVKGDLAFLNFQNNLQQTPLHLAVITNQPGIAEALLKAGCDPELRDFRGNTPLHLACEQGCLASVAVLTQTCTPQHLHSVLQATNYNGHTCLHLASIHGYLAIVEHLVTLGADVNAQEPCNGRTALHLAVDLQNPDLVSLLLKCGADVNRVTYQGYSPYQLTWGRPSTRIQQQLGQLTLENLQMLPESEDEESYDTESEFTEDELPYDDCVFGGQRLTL

RAW264.7 [6] = experiment: Antiinflammatory activity in mouse RAW264.7 cells assessed as inhibition of LPS-induced IL-6 production preincubated for 12 hrs followed by LPS-stimulation and measured after 24 hrs by ELISA; format: functional, cell-based
RAW264.7 [7] = experiment: Antiinflammatory activity in mouse RAW264.7 cells assessed as inhibition of LPS-induced TNFalpha production preincubated for 12 hrs followed by LPS-stimulation and measured after 24 hrs by ELISA; format: functional, cell-based
[8] = target: Transcription factor p65 (Mus musculus) (UniProt Q04207); experiment: Inhibition of NFkappaB p65 phosphorylation in LPS-stimulated mouse RAW264.7 cells at 20 to 40 uM preincubated for 12 hrs followed by LPS stimulation and measured after 24 hrs by Western blot analysis; format: cell-based
Transcription factor p65 (Mus musculus), sequence (Q04207 whole entry): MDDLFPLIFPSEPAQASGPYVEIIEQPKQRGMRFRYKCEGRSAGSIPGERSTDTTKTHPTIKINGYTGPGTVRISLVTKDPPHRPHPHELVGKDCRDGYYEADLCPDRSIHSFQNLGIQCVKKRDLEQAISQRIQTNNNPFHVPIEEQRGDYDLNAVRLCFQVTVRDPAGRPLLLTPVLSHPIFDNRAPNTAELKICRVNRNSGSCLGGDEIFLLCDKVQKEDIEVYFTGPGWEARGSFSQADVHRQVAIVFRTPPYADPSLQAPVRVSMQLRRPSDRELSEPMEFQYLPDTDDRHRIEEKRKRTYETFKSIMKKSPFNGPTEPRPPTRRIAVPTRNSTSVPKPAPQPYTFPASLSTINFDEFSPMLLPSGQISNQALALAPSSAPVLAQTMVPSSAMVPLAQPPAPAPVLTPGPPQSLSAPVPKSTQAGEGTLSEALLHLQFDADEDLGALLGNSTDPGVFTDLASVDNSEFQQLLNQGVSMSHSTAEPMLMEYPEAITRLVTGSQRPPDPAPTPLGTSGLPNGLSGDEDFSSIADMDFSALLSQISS

SMILES | Activity (Staphylococcus aureus) | Activity (A549) | Activity (HCT-116) | Activity (Bacillus subtilis) | Activity (HepG2 [1]) | inhibition [2] | Activity (HepG2 [3]) | Activity (HeLa) | Activity (MDA-MB-231) | Activity (Escherichia coli) | pIC50 (RAW264.7 [4]) | Activity (Aeromonas hydrophila) | inhibition [5] | inhibition (RAW264.7 [6]) | inhibition (RAW264.7 [7]) | inhibition [8]
CC(C)C[C@H]1C(=O)O[C@H]([C@@H](C)CCCC[C@@H](C)O)C[C@@H](O)[C@@H](C)C(=O)N[C@H](Cc2ccccc2)C(=O)N1C | inactive | Non-Toxic | Non-Toxic | inactive | Non-Toxic | inactive | Active | Non-Toxic | Non-Toxic | inactive | 4.41 | inactive |  |  |  | 
CC[C@H](C)[C@H]1C(=O)O[C@H]([C@@H](C)CCCC[C@@H](C)O)C[C@@H](O)[C@@H](C)C(=O)N[C@H](Cc2ccccc2)C(=O)N1C | inactive | Non-Toxic | Non-Toxic | inactive | Non-Toxic | inactive | Active | Non-Toxic | Non-Toxic | inactive | 5.08 | inactive | Active | Dose-dependent effect | Dose-dependent effect | Active
CC(C)[C@H]1C(=O)O[C@H]([C@@H](C)CCCC[C@@H](C)O)C[C@@H](O)[C@@H](C)C(=O)N[C@H](Cc2ccccc2)C(=O)N1C | inactive | Non-Toxic | Non-Toxic | inactive | Non-Toxic | inactive | Active | Non-Toxic | Non-Toxic | inactive | 4.87 | inactive | Active |  |  | Active
C[C@@H]1C[C@H]2[C@@H]3CCC4=CC(=O)C=C[C@]4(C)[C@@]3(F)[C@@H](O)C[C@]2(C)[C@@]1(O)C(=O)CO [DEXAMETHASONE] |  |  |  |  |  |  |  |  |  |  | 4.74 |  |  |  |  | 
CC[C@H](C)[C@H]1C(=O)O[C@@H](CCCCC[C@@H](C)O)C[C@@H](O)[C@@H](C)C(=O)N[C@H](Cc2ccccc2)C(=O)N1C | inactive | Non-Toxic | Non-Toxic | inactive | Non-Toxic | inactive | Active | Non-Toxic | Non-Toxic | inactive | 4.65 | inactive |  |  |  | 
